Data: PMC9950143 (Scientific Reports, 2023)
Where two headings read alike, the source gives them in different places.

Experiments:
[1] = test system: Human Coronavirus OC43 (HCoV-OC43); assay: HCoV-OC43 anti-nucleoprotein ELISA antiviral assay, Huh-7 cells; format: cell-based; settings: OC43 [Huh-7]
[2] = test system: Human coronavirus 229E (HCoV-229E); assay: microbe, parasite or virus in culture; format: cell-based
Enterovirus 68D = assay: CPE assay, RD cells; format: cell-based; settings: Enterovirus 68D [RD]
[3] = test system: Dengue 1 virus (Western Pacific); assay: microbe, parasite or virus in culture; format: cell-based; settings: Dengue 1 virus (Western Pacific) [Huh-7]
Dengue 2 virus (RL) = assay: microbe, parasite or virus in culture; format: cell-based
Dengue 3 virus (VN32) = assay: microbe, parasite or virus in culture; format: cell-based; settings: Dengue 3 virus (VN32) [Huh-7]
Zika virus (Dakar) = assay: NanoLuc reporter virus infection assay, Huh-7; format: cell-based; settings: Zika virus (Dakar) [Huh-7]
Zika virus (MR766) = assay: microbe, parasite or virus in culture; format: cell-based
Ebola virus (Makona) = assay: microbe, parasite or virus in culture; format: cell-based
Bundibugyo virus = assay: microbe, parasite or virus in culture; format: cell-based
Sudan virus (Boneface) = assay: microbe, parasite or virus in culture; format: cell-based
Sudan virus (Yambio) = assay: microbe, parasite or virus in culture; format: cell-based
Marburg virus (Ci67) [4] = assay: microbe, parasite or virus in culture; format: cell-based
Marburg (Nganda) = assay: microbe, parasite or virus in culture; format: cell-based, Marburg virus
Ravn Virus = assay: microbe, parasite or virus in culture; format: cell-based
HCV GT1b replicon = assay: HCV subgenomic replicon Renilla luciferase assay, Huh-7-lunet; format: cell-based, hepatitis C virus; settings: Hepatitis C (1b) [Huh-7-lunet]
[5] = test system: Influenza A (A/California/07/2009); assay: CPE assay, MDCK cells; format: cell-based; settings: Influenza A virus; Influenza A (A/California/07/2009) [MDCK]; read-out: Antiviral activity EC50
[6] = test system: hepatitis B virus (HBV; AD38 strain); assay: Anti-HBV assay (HBsAg), HepG2-NTCP cells; format: cell-based; settings: HepG2 or PHH cells
[7] = test system: hepatitis B virus (HBV; AD38 strain); assay: microbe, parasite or virus in culture; format: cell-based; settings: Hepatocyte, read-out: Antiviral activity EC50
DENV = assay: microbe, parasite or virus in culture; format: cell-based; settings: Dengue virus, Huh-7, read-out: EC50 range against DENV
[8] = test system: all MARV and Ravn virus (RAVV) isolates tested; assay: microbe, parasite or virus in culture; format: cell-based, Marburg virus; settings: Filoviridae, HeLa, read-out: EC50 values against all MARV and RAVV isolates tested
HCV genotype 1b and 2a = assay: HCV subgenomic replicon assay (summary of both genotypes); format: cell-based; settings: Hepatitis C virus; genotype 1b and 2a subgenomic replicon; read-out: EC50 against replicons of both HCV genotypes
Huh-7 cells = settings: human
OC43 = settings: different cells and/or assay protocols, read-out: Previously reported activity EC50; cited from earlier work
Ebola virus = settings: read-out: Previously reported activity EC50; cited from earlier work
Marburg virus (Ci67) [9] = settings: read-out: Previously reported activity EC50; cited from earlier work
HCV 1b replicon = settings: Hepatitis C (1b) replicon; read-out: Previously reported activity EC50; cited from earlier work
[10] = Cytotoxicity in HBV assay; settings: human, HepG2-NTCP cells (clone HY12), HBV-infected
[11] = Compound cytotoxicity by MTS dye reduction; settings: human, RD cells
[12] = Compound cytotoxicity by MTS dye reduction; settings: dog, MDCK cells
MDCK cells = assay: Compound cytotoxicity by MTS dye reduction; settings: MDCK; listed as Influenza B (B/Brisbane/60/2008)
[13] = Cell toxicity, CellTiter-Glo, in HBV assay; settings: human, PHH cells (HBV assay)
[14] = Cytotoxicity, CellTiter-Glo, 72 h (OC43 protocol); settings: human, Huh-7 cells
[15] = Cytotoxicity, CellTiter-Glo, 96 h (229E protocol); settings: human, H1 HeLa cells
[16] = Multiplex cytotoxicity (calcein AM) in HCV replicon assay; settings: human, Huh-7-lunet HCV genotype 1b replicon cells
[17] = n = 1, read-out: Antiviral activity EC50
[18] = Sudan ebolavirus, HeLa, n = 1, read-out: Antiviral activity EC50
[19] = Filoviridae, HeLa, read-out: Antiviral activity EC50

CCC(CC)COC(=O)[C@H](C)N[P@](=O)(OC[C@H]1O[C@@](C#N)(c2ccc3c(N)ncnn23)[C@H](O)[C@@H]1O)Oc1ccccc1 [RDV, Remdesivir]
EC50 ([1]; Betacoronavirus 1): 67 ± 5 nM
Selectivity index (SI) = CC50/EC50 [1]: 282
Selectivity index (SI) = CC50/EC50 [2]: > 538
EC50 ([2]; Human coronavirus 229E, H1-HeLa, read-out: Antiviral activity EC50): 93 ± 53 nM
Selectivity index (SI) = CC50/EC50 (Enterovirus 68D): 56
EC50 (Enterovirus 68D; [17]): 50 nM
Selectivity index (SI) = CC50/EC50 [3]: 159
EC50 [3, 17]: 210 nM
Selectivity index (SI) = CC50/EC50 (Dengue 2 virus (RL)): 115
EC50 (Dengue 2 virus (RL); Dengue virus, Huh-7, read-out: Antiviral activity EC50): 290 ± 70 nM
Selectivity index (SI) = CC50/EC50 (Dengue 3 virus (VN32)): 278
EC50 (Dengue 3 virus (VN32); [17]): 120 nM
Selectivity index (SI) = CC50/EC50 (Zika virus (Dakar)): 90
EC50 (Zika virus (Dakar); [17]): 370 nM
Selectivity index (SI) = CC50/EC50 (Zika virus (MR766)): 29
EC50 (Zika virus (MR766); Zika virus, Huh-7, read-out: Antiviral activity EC50): 1150 ± 30 nM
Selectivity index (SI) = CC50/EC50 (Ebola virus (Makona)): > 32
EC50 (Ebola virus (Makona); Zaire ebolavirus, HeLa, read-out: Antiviral activity EC50): 78 ± 4 nM
Selectivity index (SI) = CC50/EC50 (Bundibugyo virus): > 53
EC50 (Bundibugyo virus; Bundibugyo virus, HeLa, read-out: Antiviral activity EC50): 190 ± 20 nM
Selectivity index (SI) = CC50/EC50 (Sudan virus (Boneface)): > 21
EC50 (Sudan virus (Boneface); [18]): 120 nM
Selectivity index (SI) = CC50/EC50 (Sudan virus (Yambio)): > 19
EC50 (Sudan virus (Yambio); [18]): 130 nM
Selectivity index (SI) = CC50/EC50 (Marburg virus (Ci67) [4]): > 83
EC50 (Marburg virus (Ci67) [4]; [19]): 30 ± 2 nM
Selectivity index (SI) = CC50/EC50 (Marburg (Nganda)): > 104
EC50 (Marburg (Nganda); [19]): 24 ± 4 nM
Selectivity index (SI) = CC50/EC50 (Ravn Virus): > 37
EC50 (Ravn Virus; [19]): 68 ± 10 nM
Selectivity index (SI) = CC50/EC50 (HCV GT1b replicon): > 225
EC50 (HCV GT1b replicon; Hepatitis C virus, GT1B, read-out: Antiviral activity EC50): 89 ± 47 nM
EC50 [5]: > 50000 nM
selectivity index of RDV against HBV [6]: ~1
EC50 [7]: > 1000 nM
EC50 (DENV): 120 to 230 nM
EC50 [8]: 24 to 68 nM
EC50 (HCV genotype 1b and 2a): 72 to 89 nM
concentration at which cytotoxicity was observed (Huh-7 cells): approximately 4 µM
EC50 (OC43): 96 to 150 nM
EC50 (Ebola virus): 3 to 140 nM
EC50 (Marburg virus (Ci67) [9]): 10 to 20 nM
EC50 (HCV 1b replicon): 57 nM
CC50 at 5 days [10]: 7400 nM
CC50 ([11]; listed as Enterovirus 68D): 2820 nM
CC50 ([11]; listed as Enterovirus 71): 3310 nM
CC50 [12]: > 100000 nM
CC50 (MDCK cells): > 100000 nM
CC50 [13]: > 1000 nM
CC50 at 72 h [14]: 18900 ± 1800 nM
CC50 at 96 h [15]: > 50000 nM
CC50 [16]: > 20000 nM
